In patent publication US12528812B2 (Genentech, Inc., priority 2020, dated 2026) one finds Ki and IC50 data, which are given here for 16 compounds.

Read-outs that look alike come from different tables or passages of the source.

Assay [1] addresses Recombinant human JAK2 kinase domain protein (Residues 812-1132) (Homo sapiens, UniProt O60674). Briefly: JAK2 biochemical assay (LabChip mobility shift, Ki). Particulars: Biochem JAK2 Ki.
Assay [2] addresses T1, recombinant human JAK1 kinase domain protein (Residues 854-1154) (Homo sapiens, UniProt P23458).
T1 construct: human JAK1 kinase domain protein (Residues 854-1154); purchased Proteros Biostructures GmbH (Martinsried, Germany); host or cells: insect cells
The experiment in a line: JAK1 biochemical assay (LabChip mobility shift, Ki). Particulars: read-out: Biochem JAK1 Ki.

In assay [3] the test system is IL-13-stimulated STAT6 phosphorylation in human lung bronchial epithelial BEAS-2B cell line. The experiment in a line: P-STAT6 BEAS-2B + IL-13 cell assay. The class given is cell-based. Particulars: BEAS2B cells, IL13 stimulation, read-out: Cellular JAK1 PSTAT6 BEAS2B + IL13. As to the method: In order to study the effect of JAK1 inhibitors in a cell line that is relevant to the cell biology of human asthma, an IL-13-stimulated STAT6 phosphorylation assay in the human lung bronchial epithelial BEAS-2B cell line was developed.
BEAS-2B cells (ATCC′ CRL-9609™) were grown in Bronchial Epithelial Growth Medium (BEGM) (Lonza Catalog No. CC-3170; Walkersville, MD; or PromoCell Catalog No. C-21060; Heidelberg, Germany). Test compound stock solutions (0.5 mM in DMSO) were serially diluted 1:2 in DMSO to generate a 10-point concentration curve (at 500× test concentration), which was further diluted by a 50-fold dilution step in BEGM to generate a 10× concentration curve (in 2% DMSO). Cells were plated at 100,000 cells/well in 200 μL of BEGM in 96-well plates and incubated for 48 hours at 37° C. in a humidified incubator. Medium was aspirated from the cells and replaced with 70 μL of fresh BEGM. Diluted test compound (10 μL; or 2% DMSO in assay medium) was added to the cells, and the plates were incubated for 1 hour at 37° C. in a humidified incubator. Twenty μL of 250 ng/mL human recombinant IL-13 (Bio Techne Catalog No. 213-ILB) was then added to the cells and incubated for 15 minutes at 37° C. Medium was aspirated from the cells and 60 μL of ice-cold 1× cell lysis buffer (Cell Signaling Technologies; Catalog No. 9803S) containing 1 mM PMSF was added to the cells. Assay plates were incubated at −80° C. for at least 1 hour. P-STAT6 was measured by coating GAR plates (MSD; Catalog No. L45RA-1) with rabbit anti-human total STAT6 antibody (Cell Signaling Technologies; Catalog No. 9362S), incubating the cell lysates in the coated plates overnight at 4° C., and then detecting with mouse anti-phospho-STAT6 (Tyr641) Clone 16E12 antibody (Millipore; Catalog No. 05-590, custom labeled by MSD with SULFO-tag) using standard MSD plate processing, washing, and detection protocols. Plates were read on the MESO SECTOR 5600.
Data analysis was performed by subtracting negative control values from all wells and determining percent of control using the positive control values; the IC50 was determined with a four-parameter logistic fit model as shown in Equation 4.

T1 sequence (P23458 854-1154): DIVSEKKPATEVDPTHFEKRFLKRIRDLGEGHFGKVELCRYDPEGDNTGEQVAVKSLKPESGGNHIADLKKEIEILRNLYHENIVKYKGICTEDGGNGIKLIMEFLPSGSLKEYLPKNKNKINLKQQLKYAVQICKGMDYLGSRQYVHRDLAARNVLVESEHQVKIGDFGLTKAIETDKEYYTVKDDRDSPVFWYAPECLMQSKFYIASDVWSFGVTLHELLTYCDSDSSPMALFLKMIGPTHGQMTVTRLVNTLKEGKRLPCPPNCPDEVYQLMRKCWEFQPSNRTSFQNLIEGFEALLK
Sequence of Recombinant human JAK2 kinase domain protein (Residues 812-1132) (O60674 812-1132): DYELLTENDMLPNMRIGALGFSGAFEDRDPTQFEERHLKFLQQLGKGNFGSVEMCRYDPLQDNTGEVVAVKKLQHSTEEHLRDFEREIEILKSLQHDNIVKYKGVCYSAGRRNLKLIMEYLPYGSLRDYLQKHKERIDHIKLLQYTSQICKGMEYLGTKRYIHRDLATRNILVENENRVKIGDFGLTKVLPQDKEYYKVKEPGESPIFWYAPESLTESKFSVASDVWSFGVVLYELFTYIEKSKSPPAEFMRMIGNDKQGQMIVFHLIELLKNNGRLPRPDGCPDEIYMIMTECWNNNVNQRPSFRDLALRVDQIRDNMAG

In the case of `Cn1cc(NC(=O)c2cnn3cccnc23)c(-c2cc(Oc3ccc(CN4CCCCC4CO)cc3)ccc2OC(F)F)n1` (racemic) [Example 167, N-[3-[2-(difluoromethoxy)-5-[4-[[rac-(2S)-2-(hydroxymethyl)-1-piperidyl]methyl]phenoxy]phenyl]-1-methyl-pyrazol-4-yl]pyrazolo[1,5-a]pyrimidine-3-carboxamide], the values for the inhibitory constant (Ki) in assay [1] and in assay [2] were 0.34 nM and 1.9 nM, respectively. Also, in assay [3] (Homo sapiens, BEAS-2B), the IC50 came out at 26 nM.
The matching figures for `Cn1cc(NC(=O)c2cnn3cccnc23)c(-c2cc(Oc3ccc(CN4CCC4CO)cc3)ccc2OC(F)F)n1` (racemic) [Example 168, N-[3-[2-(difluoromethoxy)-5-[4-[[rac-(2S)-2-(hydroxymethyl)azetidin-1-yl]methyl]phenoxy]phenyl]-1-methyl-pyrazol-4-yl]pyrazolo[1,5-a]pyrimidine-3-carboxamide]: 0.58 nM, 1.3 nM and 30 nM.
On to `Cn1cc(NC(=O)c2cnn3cccnc23)c(-c2cc(Oc3ccc(CN4CCC4CO)cc3)ccc2OC(F)F)n1` (racemic) [Example 169, N-[3-[2-(difluoromethoxy)-5-[4-[[rac-(2R)-2-(hydroxymethyl)azetidin-1-yl]methyl]phenoxy]phenyl]-1-methyl-pyrazol-4-yl]pyrazolo[1,5-a]pyrimidine-3-carboxamide], for which the Ki (as a rule, a dissociation constant, usually derived from enzyme kinetics or from competition with a known ligand) in assay [1] worked out at 0.68 nM; in assay [2], 1.2 nM. Moreover, in assay [3], the IC50 was 29 nM.
Take `Cn1cc(NC(=O)c2cnn3cccnc23)c(-c2cc(Oc3ccc(CN4CCC(CO)C4)cc3)ccc2OC(F)F)n1` (racemic) [Example 170, N-[3-[2-(difluoromethoxy)-5-[4-[[rac-(3S)-3-(hydroxymethyl)pyrrolidin-1-yl]methyl]phenoxy]phenyl]-1-methyl-pyrazol-4-yl]pyrazolo[1,5-a]pyrimidine-3-carboxamide]: the Ki is 1.9 nM in assay [1] and 4.1 nM in assay [2]. Further, the IC50 in assay [3] (Homo sapiens, BEAS-2B) is 76 nM.
On the same counts, the results for `Cn1cc(NC(=O)c2cnn3cccnc23)c(-c2cc(Oc3ccc(CN4CCC[C@@H]4CO)cc3)ccc2OC(F)F)n1` (racemic) [Example 171, N-[3-[2-(difluoromethoxy)-5-[4-[[rac-(2R)-2-(hydroxymethyl)pyrrolidin-1-yl]methyl]phenoxy]phenyl]-1-methyl-pyrazol-4-yl]pyrazolo[1,5-a]pyrimidine-3-carboxamide] are 0.95 nM, 1.9 nM and 50 nM.
The matching figures for `Cn1cc(NC(=O)c2cnn3cccnc23)c(-c2cc(Oc3ccc(CN4CC[C@@H](CO)C4)cc3)ccc2OC(F)F)n1` (racemic) [Example 172, N-[3-[2-(difluoromethoxy)-5-[4-[[rac-(3R)-3-(hydroxymethyl)pyrrolidin-1-yl]methyl]phenoxy]phenyl]-l-methyl-pyrazol-4-yl]pyrazolo[1,5-a]pyrimidine-3-carboxamide]: 1.4 nM, 6.2 nM and 150 nM.
On the same counts, the results for `CN(C)[C@H]1CCN(C(=O)c2cccc(Oc3ccc(OC(F)F)c(-c4nn(C)cc4NC(=O)c4cnn5cccnc45)c3)c2)C1` (racemic) [Example 210, N-[3-[2-(difluoromethoxy)-5-[3-[rac-(3R)-3-(dimethylamino)pyrrolidine-1-carbonyl]phenoxy]phenyl]-1-methyl-pyrazol-4-yl]pyrazolo[1,5-a]pyrimidine-3-carboxamide] are 0.95 nM, 1.1 nM and 50 nM.
Turning to `CN(C)C1CCN(C(=O)c2cccc(Oc3ccc(OC(F)F)c(-c4nn(C)cc4NC(=O)c4cnn5cccnc45)c3)c2)C1` (racemic) [Example 211, N-[3-[2-(difluoromethoxy)-5-[3-[rac-(3S)-3-(dimethylamino)pyrrolidine-1-carbonyl]phenoxy]phenyl]-1-methyl-pyrazol-4-yl]pyrazolo[1,5-a]pyrimidine-3-carboxamide], the results for the Ki in assay [1] and in assay [2] were 0.58 nM and 0.98 nM, respectively. The IC50 in assay [3] (Homo sapiens, BEAS-2B) was 54 nM.
The matching figures for `CN(C)C1CCCN(C(=O)c2cccc(Oc3ccc(OC(F)F)c(-c4nn(C)cc4NC(=O)c4cnn5cccnc45)c3)c2)C1` (racemic) [Example 213, N-[3-[2-(difluoromethoxy)-5-[3-[rac-(3R)-3-(dimethylamino)piperidine-1-carbonyl]phenoxy]phenyl]-1-methyl-pyrazol-4-yl]pyrazolo[1,5-a]pyrimidine-3-carboxamide]: 0.89 nM, 1.2 nM and 49 nM.
The matching figures for `Cn1cc(NC(=O)c2cnn3cccnc23)c(-c2cc(Oc3cccc([C@@H]4COCCN4)c3)ccc2OC(F)F)n1` (stereo in doubt) [Example 32, N-[3-[2-(difluoromethoxy)-5-[3-[rac-(3R)-morpholin-3-yl]phenoxy]phenyl]-1-methyl-pyrazol-4-yl]pyrazolo[1,5-a]pyrimidine-3-carboxamide]: 0.39 nM, 0.67 nM and 46 nM.
On the same counts, the results for `Cn1cc(NC(=O)c2cnn3cccnc23)c(-c2cc(Oc3cccc([C@H]4COCCN4)c3)ccc2OC(F)F)n1` (stereo in doubt) [Example 33, N-[3-[2-(difluoromethoxy)-5-[3-[rac-(3S)-morpholin-3-yl]phenoxy]phenyl]-1-methyl-pyrazol-4-yl]pyrazolo[1,5-a]pyrimidine-3-carboxamide] are 0.43 nM, 0.95 nM and 62 nM.
As to `Cn1cc(NC(=O)c2cnn3cccnc23)c(-c2cc(Oc3cccc(CN4CCO[C@@H](CO)C4)c3)ccc2OC(F)F)n1` (stereo in doubt) [Example 75, N-[3-[2-(difluoromethoxy)-5-[3-[[rac-(2S)-2-(hydroxymethyl)morpholin-4-yl]methyl]phenoxy]phenyl]-1-methyl-pyrazol-4-yl]pyrazolo[1,5-a]pyrimidine-3-carboxamide], the values for the Ki in assay [1] and in assay [2] were 0.89 nM and 0.84 nM, respectively. The IC50 in assay [3] (Homo sapiens, BEAS-2B) worked out at 96 nM.
The matching figures for `Cn1cc(NC(=O)c2cnn3cccnc23)c(-c2cc(Oc3cccc(CN4CCO[C@H](CO)C4)c3)ccc2OC(F)F)n1` (stereo in doubt) [Example 94, N-[3-[2-(difluoromethoxy)-5-[3-[[rac-(2R)-2-(hydroxymethyl)morpholin-4-yl]methyl]phenoxy]phenyl]-1-methyl-pyrazol-4-yl]pyrazolo[1,5-a]pyrimidine-3-carboxamide]: 1.1 nM, 1.7 nM and 40 nM.
The matching figures for `Cn1cc(NC(=O)c2cnn3cccnc23)c(-c2cc(Oc3cnn([C@H]4CNCC[C@@H]4O)c3)ccc2OC(F)F)n1` (stereo in doubt) [Example 180, N-[3-[2-(difluoromethoxy)-5-[1-[rac-(3S,4S)-4-hydroxy-3-piperidyl]pyrazol-4-yl]oxy-phenyl]-1-methyl-pyrazol-4-yl]pyrazolo[1,5-a]pyrimidine-3-carboxamide]: 0.23 nM, 0.29 nM and 95 nM.
The matching figures for `CN1CC[C@@H](O)[C@H](n2cc(Oc3ccc(OC(F)F)c(-c4nn(C)cc4NC(=O)c4cnn5cccnc45)c3)cn2)C1` (stereo in doubt) [Example 185, N-[3-[2-(difluoromethoxy)-5-[1-[rac-(3R,4R)-4-hydroxy-l-methyl-3-piperidyl]pyrazol-4-yl]oxy-phenyl]-1-methyl-pyrazol-4-yl]pyrazolo[1,5-a]pyrimidine-3-carboxamide]: 0.21 nM, 0.33 nM and 62 nM.
Take `NCc1ccc(Oc2ccc(OC(F)F)c(-c3n[nH]cc3NC(=O)c3cnn4cccnc34)c2)cc1` [Example 3, N-[3-[5-[4-(aminomethyl)phenoxy]-2-(difluoromethoxy)phenyl]-1H-pyrazol-4-yl]pyrazolo[1,5-a]pyrimidine-3-carboxamide]: the Ki in assay [1] amounted to 0.89 nM; in assay [2], 3.3 nM. Besides, the IC50 in assay [3] (Homo sapiens, BEAS-2B) was 15 nM.
